Laboratory results taken from publication PMC3749867, “Evolutionarily conserved structural changes in phosphatidylinositol 5-phosphate 4-kinase (PI5P4K) isoforms are responsible for differences in enzyme activity and localization” (Biochemical Journal, 2013).

Key:
PI5P4Kβ = molecular target: T1, PI5P4Kβ (Homo sapiens, UniProt P78356); assay: radiometric lipid kinase assay, TLC; format: biochemical; conditions: read-out: Km (μM ATP); PtdIns5P co-substrate, 10 mM MgCl2, pH 7.4, 30 °C, ATP 0–150 μM
T1 construct: gene PIP4K2B; full-length cDNA in pGEX6P, E. coli BL21(DE3), GST fusion or GST cleaved by PreScission; mutant PI5P4Kβ+ His-tagged; homodimer
T1 sequence (P78356 1-416): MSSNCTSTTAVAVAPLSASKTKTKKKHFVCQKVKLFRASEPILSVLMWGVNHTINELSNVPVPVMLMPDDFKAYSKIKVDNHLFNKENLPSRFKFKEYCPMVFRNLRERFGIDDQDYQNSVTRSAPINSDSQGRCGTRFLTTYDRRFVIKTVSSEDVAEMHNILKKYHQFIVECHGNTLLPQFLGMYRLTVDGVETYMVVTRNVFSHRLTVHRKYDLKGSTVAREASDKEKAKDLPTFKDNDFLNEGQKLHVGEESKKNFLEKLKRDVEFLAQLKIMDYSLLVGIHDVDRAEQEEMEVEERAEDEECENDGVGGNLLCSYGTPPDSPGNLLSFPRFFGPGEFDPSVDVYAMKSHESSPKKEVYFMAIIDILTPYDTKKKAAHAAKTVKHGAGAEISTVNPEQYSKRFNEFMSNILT
Source text: radiometric lipid kinase assay, TLC on PI5P4Kβ

dPIP4K = molecular target: T2, dPIP4K (Drosophila melanogaster, UniProt A4V141); assay: radiometric lipid kinase assay, TLC; format: biochemical; conditions: PtdIns5P co-substrate, 10 mM MgCl2, pH 7.4, 30 °C; labelled compound
T2 construct: gene PIP4K; pGEX6P, E. coli BL21(DE3), GST fusion or GST cleaved by PreScission
T2 sequence (A4V141 1-404): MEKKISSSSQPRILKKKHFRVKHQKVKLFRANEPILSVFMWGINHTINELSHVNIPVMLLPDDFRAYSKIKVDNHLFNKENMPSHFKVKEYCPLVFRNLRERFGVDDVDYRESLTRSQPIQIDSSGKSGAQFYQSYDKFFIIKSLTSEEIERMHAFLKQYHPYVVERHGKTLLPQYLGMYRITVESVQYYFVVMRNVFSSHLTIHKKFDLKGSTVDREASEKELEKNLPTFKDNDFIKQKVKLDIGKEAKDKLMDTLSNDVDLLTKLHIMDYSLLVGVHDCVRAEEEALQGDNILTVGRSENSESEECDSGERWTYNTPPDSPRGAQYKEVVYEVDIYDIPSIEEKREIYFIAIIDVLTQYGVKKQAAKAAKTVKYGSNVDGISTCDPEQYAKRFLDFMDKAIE

PI5P4Kγ = molecular target: T3, PI5P4Kγ (Homo sapiens, UniProt Q8TBX8, E153T/N195G/E196V/D197E, form not given); conditions: read-out: Km (μM ATP); PtdIns5P co-substrate, 10 mM MgCl2, pH 7.4, 30 °C, ATP 0–150 μM
T3 construct: gene PIP4K2C

PPK-2 = molecular target: T4, PPK-2 (Caenorhabditis elegans, UniProt Q9BL73); assay: radiometric lipid kinase assay, TLC; format: biochemical; conditions: PtdIns5P co-substrate, 10 mM MgCl2, pH 7.4, 30 °C; labelled compound
T4 construct: pGEX6P, E. coli BL21(DE3), GST fusion or GST cleaved by PreScission
T4 sequence (Q9BL73 1-401): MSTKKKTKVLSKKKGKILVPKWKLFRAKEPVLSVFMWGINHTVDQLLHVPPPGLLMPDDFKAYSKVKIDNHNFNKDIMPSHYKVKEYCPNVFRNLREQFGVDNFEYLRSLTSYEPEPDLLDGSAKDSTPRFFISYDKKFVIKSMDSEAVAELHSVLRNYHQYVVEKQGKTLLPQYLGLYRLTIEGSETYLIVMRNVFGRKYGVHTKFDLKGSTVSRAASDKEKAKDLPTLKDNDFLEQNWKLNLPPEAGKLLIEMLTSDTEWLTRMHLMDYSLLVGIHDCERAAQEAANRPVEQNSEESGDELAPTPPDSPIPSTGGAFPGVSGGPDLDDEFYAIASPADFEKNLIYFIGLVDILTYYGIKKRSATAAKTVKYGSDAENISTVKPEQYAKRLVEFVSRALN

T3 sequence (Q8TBX8 2-421 E153T/N195G/E196V/D197E, form open): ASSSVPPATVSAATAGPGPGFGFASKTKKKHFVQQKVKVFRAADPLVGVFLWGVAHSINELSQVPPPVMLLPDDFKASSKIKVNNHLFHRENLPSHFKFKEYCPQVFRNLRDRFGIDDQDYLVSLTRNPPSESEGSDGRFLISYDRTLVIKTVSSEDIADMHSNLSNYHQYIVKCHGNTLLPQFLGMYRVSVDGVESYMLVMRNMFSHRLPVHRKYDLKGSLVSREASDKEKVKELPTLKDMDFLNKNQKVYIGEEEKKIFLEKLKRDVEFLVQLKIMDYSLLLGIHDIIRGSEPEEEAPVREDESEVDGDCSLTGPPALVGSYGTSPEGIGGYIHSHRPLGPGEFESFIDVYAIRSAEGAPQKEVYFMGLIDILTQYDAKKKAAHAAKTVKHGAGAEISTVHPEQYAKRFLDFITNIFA

Km (PI5P4Kβ): 7.58 µM | Km (PI5P4Kγ): 3.96 µM
SMILES: Nc1ncnc2c1ncn2[C@@H]1O[C@H](COP(=O)(O)OP(=O)(O)OP(=O)(O)O)[C@@H](O)[C@H]1O [ATP]
radiometric lipid kinase assay, TLC (dPIP4K): We assayed the PI5P4K activity of recombinant dPIP4K from D. melanogaster | radiometric lipid kinase assay, TLC (PPK-2): PPK-2 from C. elegans had a similar specific activity to that of PI5P4Kγ
